Results published in patent US8435987B2, “Pyrazolo-pyridinone and pyrazolo-pyrazinone compounds as P38 modulators and methods of use thereof” (Amgen Inc., priority 2007, dated 2013).
Like-named read-outs stand apart in the source and are kept apart here.

Key:
recombinant human p38α = recombinant human p38α (Homo sapiens, UniProt Q16539); assay: Purified and activated recombinant human p38α HTRF assay; assay type: biochemical; conditions: 1 nM p38α, 50 μM ATP, 100 nM GST-ATF2-Avitag, read-out: p3a IC550
Chain of recombinant human p38α (Q16539 whole entry): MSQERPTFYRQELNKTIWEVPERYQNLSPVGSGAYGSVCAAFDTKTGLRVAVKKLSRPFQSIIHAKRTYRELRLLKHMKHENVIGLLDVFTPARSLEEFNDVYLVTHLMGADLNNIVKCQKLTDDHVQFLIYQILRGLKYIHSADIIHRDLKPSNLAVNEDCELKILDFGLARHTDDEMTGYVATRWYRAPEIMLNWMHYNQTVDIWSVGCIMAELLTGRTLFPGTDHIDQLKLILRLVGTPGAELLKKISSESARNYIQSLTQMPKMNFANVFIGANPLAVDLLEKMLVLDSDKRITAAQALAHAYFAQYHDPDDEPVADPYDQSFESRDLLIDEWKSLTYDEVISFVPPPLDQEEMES
Procedure: Purified and Activated Recombinant Human p38α Assay
• Kinase Reaction Buffer: Kinase reaction buffer for p38α HTRF assays consists of 50 mM Tris-pH 7.5, 5 mM MgCl2, 0.1 mg/mL BSA, 100 μM Na3VO4 and 0.5 mM DTT. • HTRF Detection Buffer: HTRF detection buffer contains 100 mM HEPES-pH 7.5, 100 mM NaCl, 0.1% BSA, 0.05% Tween-20, and 10 mM EDTA. • Serial Dilution of Compounds: Compounds were dissolved in 100% DMSO and serially diluted (3 fold, 10 point) in a polypropylene 96-well microtiter plate (drug plate). The final starting concentration of compounds in the p38a enzymatic assays was 1 μM. Columns 6 and 12 (HI controls and LO controls respectively) in the drug plate were reserved as controls and contained only DMSO. • Kinase Reaction: The p38α kinase reactions were carried out in a polypropylene 96-well black round bottom assay plate in total volume of 30 μL kinase reaction buffer. Appropriate concentration of purified and activated enzyme (recombinant human) was mixed with indicated concentration of ATP and 100 nM GST-ATF2-Avitag, in the presence or absence (HI control) of Compound. See table below for actual concentrations. In the absence of substrate, the background was measured as LO control. The reaction was allowed to incubate for 1 hour at RT. • Assay Reagent Concentrations: The final reagent concentrations were 1 nM p38α and 50 μM ATP. […] After 60 minutes incubation at room temperature, the assay plate was read in a Discovery Plate Reader. The wells were excited with coherent 320 nm light and the ratio of delayed ([…] post excitation) emissions at […] (native europium fluorescence) and 665 nm (europium fluorescence transferred to allophycocyanin—an index of substrate phosphorylation) was determined (Park et al, 1999). • Data Analysis: The proportion of substrate phosphorylated in the kinase reaction in the presence of compound compared with that phosphorylated in the presence of DMSO vehicle alone (HI control) was calculated using the formula: % control (POC)=(compound−average LO)/(average HI−average LO)*100. Data (consisting of POC and inhibitor concentration in μM) was fitted to a 4-parameter equation (y=A+((B−A)/(1+((x/C)AD))), where A is the minimum y (POC) value, B is the maximum y (POC), C is the x (compound concentration) at the point of inflection and D is the slope factor, using a Levenburg-Marquardt non-linear regression algorithm.
The inhibition constant (Ki) of the inhibitor was estimated from the IC50 (compound concentration at the point of inflection C) using the Cheng-Prussof equation: Ki=IC50/(1+S/Km), where S is the ATP substrate concentration, and Km is the Michaelis constant for ATP as determined experimentally. All results were expressed as the mean± the standard error of the mean. Data acquisition and non-linear regression algorithms were performed using Activity Base v5.2 and XL-fit software v4.1 respectively. All data was archived using Activity Base v5.2 software.

[1] = test system: secreted IL-8 by whole blood activated with TNF-α; assay: Inhibition of TNF-α induced IL-8 in 50% human whole blood; assay type: cell-based
Procedure: Inhibition of TNF-α Induced IL-8 in 50% Human Whole Blood
Test compounds were evaluated in vitro for the ability to inhibit the production of secreted IL-8 by whole blood activated with TNF-α. Fresh human whole blood was obtained from healthy, non-medicated volunteers in sodium heparin tubes.
Compound Dilution—Assay Procedure
Test compounds are serially diluted 1:3 in DMSO and then diluted 1:250 into R10 (RPMI 1640, 10% human serum AB, 1× pen/strep/glutamine) to the 4× working concentration to be used in the assay. 100 ul heparinized whole blood is plated into wells of 96 well flat bottom plates. 50 ul of either 4× compound or DMSO control (Final DMSO concentration is 0.1%) are added to the appropriate wells. Plates are incubated for 1 hour at 37 degrees Celsius. 50 ul of 4× TNF-α (4 nM TNF-α, for a final concentration of 1 nM) or control (media alone) is added to the appropriate wells (Total volume=200 ul). Plates are incubated overnight (16-18 hours). 100 ul of supernatant is collected and stored in 96-well round bottom polypropylene plates at −80 degrees Celsius or assayed immediately for IL-8.
Cytokines are measured on antibody (Ab) sandwich ECL based 96-well detection plates. 20 ul of supernatant are added to plate and plate is sealed and shaken at RT for 1 hour. 130 ul of detection Ab cocktail is added and plates are sealed and shaken for 1 hour in the dark at RT. Plates are read on MSD Sector HTS instrument. Data are analyzed and IC50 values generated using Activity Base and Xl-fit programs.

[2] = test system: TNF-α secretion by LPS-treated THP1 cells; assay: Lipopolysaccharide-activated THP1 cell TNF production assay; assay type: cell-based; conditions: Homo sapiens, THP-1, 3 hours, read-out: IC50 in the THP-1 cellular TNF production assay
Procedure: Lipopolysaccharide-Activated THP1 Cell TNF Production Assay
THP1 cells were resuspended in fresh THP1 media (RPMI 1640, 10% heat-inactivated FBS, 1×PGS, 1×NEAA, plus 30 μM βME) at a concentration of 1.5×10^6 cells per mL. One hundred microliters of cells per well were plated in a polystyrene 96-well tissue culture plate. 1.5 micrograms per mL of bacterial LPS was prepared in THP1 media and transferred to the first 11 columns of a 96-well polypropylene plate. Column 12 contained only THP1 media for the LO control. Compounds were dissolved in 100% DMSO and serially diluted 3 fold in a polypropylene 96-well microtiter plate (drug plate). Columns 6 and 12 were reserved as controls (HI controls and LO controls respectively) and contained only DMSO. 10 μL of LPS followed by one microliter of inhibitor compound from the drug plate was transferred to the cell plate. The treated cells were induced to synthesize and secrete TNF-α in a 37° C. humidified incubator with 5% CO2 for 3 hours. Fifty microliters of conditioned media was transferred to a 96-well MULTI-ARRAY™ 96-well small spot plate—custom coated with MAB610 containing 100 μL of 2× Read Buffer P supplemented with 0.34 nM AF210NA polyclonal Ab labeled with ruthenium (MSD-Sulfo-TAG™—NHS ester). After an overnight incubation at room temperature with shaking, the reaction was read on the Sector Imager™ 6000. […] The amount of secreted TNF-α in the presence of AMG compounds compared with that in the presence of DMSO vehicle alone (HI control) was calculated using the formula: % control (POC)=(cpd−average LO)/(average HI−averageLO)*100. Data (consisting of POC and inhibitor concentration in μM) was fitted to a 4-parameter equation (y=A+((B−A)/(1+((x/C)^D))), where A is the minimum y (POC) value, B is the maximum y (POC), C is the x (cpd concentration) at the point of inflection and D is the slope factor) using a Levenburg-Marquardt non-linear regression algorithm.

[3] = 50% human whole blood, TNF-α (1 nM final) induced IL-8, 16-18 hours, read-out: WB TNF/IL8 IC50
[4] = Homo sapiens, read-out: IC50, TNF-α induced IL-8 in 50% human whole blood

IC50 (recombinant human p38α) [nM]	IC50 [1, 3] [nM]	IC50 [1, 4] [nM]	IC50 [2] [nM]	SMILES
6.7	2.7	≤ 100	≤ 100	CNc1noc2c(-c3cc4cnn(-c5c(F)cccc5F)c4n(C)c3=O)c(C)ccc12 [Example 5, 1-(2,6-difluorophenyl)-7-methyl-5-(6-methyl-3-(methylamino)-1,2-benzisoxazol-7-yl)-1,7-dihydro-6H-pyrazolo[3,4-b]pyridin-6-one]
8.1	1.1	≤ 100	≤ 100	Cc1ccc2c(NC3CC3)noc2c1-c1cc2cnn(-c3c(F)cccc3F)c2n(C)c1=O [Example 1, 5-(3-(cyclopropylamino)-6-methylbenzo[d]isoxazol-7-yl)-1-(2,6-difluorophenyl)-7-methyl-1H-pyrazolo[3,4-b]pyridin-6(7H)-one]
